Laboratory results reported in patent US12195427B2, “MASP-2 inhibitors and methods of use” (priority 2018, dated 2025).

How the values were obtained:
MASP-2 CCP2-SP = MASP-2 CCP2-SP (Homo sapiens (Human), UniProt O00187); assay: MASP-2 co-crystallization, X-ray crystallography and structure analysis (H-bonds, van der Waals contacts); parameters: van der Waals contact distance, MASP-2 HIS 483 atom CD2 / van der Waals contact distance, MASP-2 HIS 483 atom NE2 / van der Waals contact distance, SER 654 C to compound atom / van der Waals contact distance, SER 654 O to compound atom / van der Waals contact distance, TRP 655 C to compound atom / van der Waals contact distance, MASP-2 GLY 528 atom CA / van der Waals contact distance TRP 655 atom CZ3 / van der Waals contact distance TRP 655 atom N / van der Waals contact distance TRP 655 atom CE3 / van der Waals contact distance GLY 656 atom C / van der Waals contact distance GLY 656 atom CA / van der Waals contact distance GLY 656 atom O / van der Waals contact distance, MASP-2 TYR 607 atom CD1 / van der Waals contact distance, MASP-2 PRO 606 atom O / d(C3,CA1) / d(CA1,N1)2 / d(H4,O1) / d(H4,O2) / d(O1,O2) / d(CA1,O2) / d(CA6,O1) / d(CA6,O2) / d(CA1,C5) / d(O2,H3) / d(N2,C2) / d(CA5,N2) / d(N2,C4) / d(N2,C6) / d(N2,CA3) / d(N2,O3) / d(O4,H2): unit not given beside the values;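 for Ligand-pharmacophore element distance, pharmacophore element C2: distance from averaged pharmacophore element to bound ligand; missing value means element absent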;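 for Ligand-pharmacophore element distance, pharmacophore element C3: distance from averaged pharmacophore element to bound ligand; missing value means element absent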;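 for Ligand-pharmacophore element distance, pharmacophore element C4: distance from averaged pharmacophore element to bound ligand; missing value means element absent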;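 for Ligand-pharmacophore element distance, pharmacophore element C5: distance from averaged pharmacophore element to bound ligand; missing value means element absent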
Chain of MASP-2 CCP2-SP (O00187 445-686): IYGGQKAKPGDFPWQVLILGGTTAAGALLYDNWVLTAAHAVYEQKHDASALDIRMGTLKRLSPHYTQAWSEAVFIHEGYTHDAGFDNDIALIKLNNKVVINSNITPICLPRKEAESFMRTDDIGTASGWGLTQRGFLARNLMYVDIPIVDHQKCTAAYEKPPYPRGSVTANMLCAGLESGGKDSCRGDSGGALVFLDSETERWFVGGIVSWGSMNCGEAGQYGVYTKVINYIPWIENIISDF
Chain of MASP-2 CCP2-SP (O00187 364-432 partner): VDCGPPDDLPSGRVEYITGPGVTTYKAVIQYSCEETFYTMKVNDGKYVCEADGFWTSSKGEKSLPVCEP
In short: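 E. coli-expressed CCP2-SP (±6His); apo crystals soaked 1–2× in inhibitor-containing crystallization solution; optional 20% glycerol cryoprotection, LN2 flash-cool; synchrotron data at 1.0 wavelength; MR using 1Q3X portions, partial refinement; single pose analysed when several seen.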

Lectin Pathway = Lectin Pathway Activation Assay in Human Serum (mannan-coated ELISA, C3c detection); assay type: biochemical; settings: 1% human serum
Procedure: Microtiter ELISA plate was coated with mannan from Saccharomyces cerevisiae (Sigma-Aldrich, M7504) for overnight at 4° C. in coating buffer [15 mM Na2CO3, 35 mM NaHCO3].

[1] = Table A5-1 pharmacophore: distance between elements, S2/S1 region
[2] = Table A5-2 pharmacophore distance, S3/S4 region
[3] = Table A7-1, between pharmacophore elements of the bound compound

Cc1nc(N)ccc1CNC(=O)[C@H](C)NC(=O)[C@H]1C[C@H](Cc2ccccc2)CN1 [compound 1304, (2R,4S)—N—((S)-1-(((6-Amino-2-methylpyridin-3-yl)methyl)amino)-1-oxopropan-2-yl)-4-benzylpyrrolidine-2-carboxamide]
H-bond distance to MASP-2 ASP 627 atom OD2 (MASP-2 CCP2-SP; Table A1 (H-Bonds), ASP 627 OD2): 3.17 | H-bond distance to MASP-2 GLY 656 atom N (MASP-2 CCP2-SP; Table A1 (H-Bonds), GLY 656 N): 3.2 | H-bond distance to MASP-2 GLY 656 atom O (MASP-2 CCP2-SP; Table A1 (H-Bonds), GLY 656 O): 2.81 | H-bond distance to MASP-2 SER 628 atom O (MASP-2 CCP2-SP; Table A1 (H-Bonds), SER 628 O): 3.18 | H-bond distance to MASP-2 SER 654 atom O (MASP-2 CCP2-SP; Table A1 (H-Bonds), SER 654 O): 2.97 | H-bond distance to MASP-2 SER 657 atom O (MASP-2 CCP2-SP; Table A1 (H-Bonds), SER 657 O): 2.96 | van der Waals contact distance, MASP-2 HIS 483 atom CD2 (MASP-2 CCP2-SP; Table A2-1): 3.71 | van der Waals contact distance, MASP-2 HIS 483 atom NE2 (MASP-2 CCP2-SP; Table A2-1): 3.65 | van der Waals contact distance, MASP-2 GLY 528 atom CA (MASP-2 CCP2-SP; Table A2-2): 3.79 | van der Waals contact distance, MASP-2 PHE 529 atom CD2 (MASP-2 CCP2-SP; Table A2-3): 3.79 | van der Waals contact distance, MASP-2 PHE 529 atom CE2 (MASP-2 CCP2-SP; Table A2-3): 3.84 | van der Waals contact distance, MASP-2 TYR 607 atom CD1 (MASP-2 CCP2-SP; Table A2-4): 3.78 | van der Waals contact distance, MASP-2 amino acid atom to compound atom (MASP-2 CCP2-SP; Table A2-7: SER 628 (CB, O, OG)): 3.65 | van der Waals contact distance, VAL 653 CG1 to compound atom (MASP-2 CCP2-SP; Table A2-11): 3.27 | van der Waals contact distance, TRP 655 CA to compound atom (MASP-2 CCP2-SP; Table A2-12): 3.42 | van der Waals contact distance TRP 655 atom CE3 (MASP-2 CCP2-SP; Table A2-13, MASP-2 TRP 655 CE3, compound atom in line below): 3.78 | van der Waals contact distance TRP 655 atom CZ3 (MASP-2 CCP2-SP; Table A2-13, MASP-2 TRP 655 CZ3): 3.68 | van der Waals contact distance, MASP-2 amino acid atom to compound atom (MASP-2 CCP2-SP; Table A2 section before Table A2-8): 3.81 | Ligand-pharmacophore element distance, pharmacophore element C2 (MASP-2 CCP2-SP; Table A4-1, element C2): 0 | Ligand-pharmacophore element distance, pharmacophore element C3 (MASP-2 CCP2-SP; Table A4-1, element C3): 0.09 | Ligand-pharmacophore element distance, pharmacophore element C4 (MASP-2 CCP2-SP; Table A4-1, element C4): 0 | Ligand-pharmacophore element distance, pharmacophore element C5 (MASP-2 CCP2-SP; Table A4-1, element C5): 0 | Ligand-pharmacophore element distance, pharmacophore element C6 (MASP-2 CCP2-SP; Table A4-1, element C6): 0 | Ligand-pharmacophore element distance, pharmacophore element C7 (MASP-2 CCP2-SP; Table A4-1, element C7): 0 | Ligand-pharmacophore element distance, pharmacophore element CA1 (MASP-2 CCP2-SP; Table A4-1, element CA1): 0.56 | Ligand-pharmacophore element distance, pharmacophore element CA2 (MASP-2 CCP2-SP; Table A4-1, element CA2): 0.23 | Ligand-pharmacophore element distance, pharmacophore element CA3 (MASP-2 CCP2-SP; Table A4-1, element CA3): 0 | Ligand-pharmacophore element distance, pharmacophore element CA4 (MASP-2 CCP2-SP; Table A4-1, element CA4): 0 | Ligand-pharmacophore element distance, pharmacophore element CA5 (MASP-2 CCP2-SP; Table A4-1, element CA5): 0 | Ligand-pharmacophore element distance, pharmacophore element CA6 (MASP-2 CCP2-SP; Table A4-1, element CA6): 0 | d(C3,CA1) (MASP-2 CCP2-SP; [1]): 2.84 | d(CA1,N1)2 (MASP-2 CCP2-SP; [1]): 1.38 | d(CA1,O1) (MASP-2 CCP2-SP; [1]): 4.39 | d(CA1,O2) (MASP-2 CCP2-SP; [1]): 3.89 | d(H4,O1) (MASP-2 CCP2-SP; [1]): 4.40 | d(H4,O2) (MASP-2 CCP2-SP; [1]): 3.85 | d(O1,O2) (MASP-2 CCP2-SP; [1]): 3.37 | d(N2,CA2) (MASP-2 CCP2-SP; [2]): 5.96 | d(O2,H3) (MASP-2 CCP2-SP; [2]): 4.37 | d(O2,N2) (MASP-2 CCP2-SP; [2]): 2.62 | a(C3, CA1, O1) (MASP-2 CCP2-SP; Table A6-1 pharmacophore angle): 149.82 | a(CA1, O1, O2) (MASP-2 CCP2-SP; Table A6-1 pharmacophore angle): 105.87 | a(O1, O2, H4) (MASP-2 CCP2-SP; Table A6-1 pharmacophore angle): 132.43 | a(N1, CA1, O1) b) (MASP-2 CCP2-SP; Table A6-1 pharmacophore angle, Methyl-amino-pyridine compounds): 173.92 | a(O1, O2, H3) (MASP-2 CCP2-SP; Table A6-2 pharmacophore angle): 147.16 | a(O1, O2, N2) (MASP-2 CCP2-SP; Table A6-2 pharmacophore angle): 139.74 | a(O2, N2, CA2) (MASP-2 CCP2-SP; Table A6-2 pharmacophore angle): 156.83 | Pharmacophore torsion angle a(C3, CA1, O1, H4) (MASP-2 CCP2-SP; [3]): 24.93 | Pharmacophore torsion angle a(H4, O1, O2, H3) (MASP-2 CCP2-SP; [3]): 49.79 | Pharmacophore torsion angle a(H4, O1, O2, N2) (MASP-2 CCP2-SP; [3]): 138.09 | Pharmacophore torsion angle a(N1, CA1, O1, H4) (MASP-2 CCP2-SP; [3]): 5.90 | Pharmacophore torsion angle a(O1, H4, O2, CA1) (MASP-2 CCP2-SP; [3]): −84.58 | Pharmacophore torsion angle a(O1, O2, N2, CA2) (MASP-2 CCP2-SP; Table A7-2, between pharmacophore elements of the bound compound): 125.90 | IC50 (Lectin Pathway): 50 to 500 nM
